pIC50: −log10 of the molar value. Starred links: 1 amine or outer side, 2 acyl side, 3 side chain; linkers in the order of their positions; H or OH if unused. Positions of bridges follow the written chain, without caps; N, C: chain ends. Non-standard residues stand in square brackets, D forms with d. Residues, ends and D or L forms follow the SMILES beside them. *: point of attachment. hPhe(3-Cl-4-CF3) = N[C@@H](CCc1ccc(C(F)(F)F)c(Cl)c1)C(=O)O; hPhe(3-F,4-CF3) = N[C@@H](CCc1ccc(C(F)(F)F)c(F)c1)C(=O)O; NEtPhe(4-Cl) = CCN[C@@H](Cc1ccc(Cl)cc1)C(=O)O; NMeAbu(4,4,4-F3) = CN[C@@H](CC(F)(F)F)C(=O)O; NMePhe(4-Me) = CN[C@@H](Cc1ccc(C)cc1)C(=O)O; NMePhe(4-I) = CN[C@@H](Cc1ccc(I)cc1)C(=O)O; hPhe(4-Cl) = N[C@@H](CCc1ccc(Cl)cc1)C(=O)O; NMedβ3hAla = C[C@H](CC(=O)[*:2])N(C)[*:1]; NMeAla(cPent) = CN[C@@H](CC1CCCC1)C(=O)O; NMeGly(cPent) = CN[C@H](C(=O)O)C1CCCC1; dαMeGly(allyl) = C=CC[C@@](C)(N)C(=O)O; NMeGly(cBu) = CN[C@H](C(=O)O)C1CCC1; NMeCha = CN[C@@H](CC1CCCCC1)C(=O)O; NMeChg = CN[C@H](C(=O)O)C1CCCCC1; NMeI = CC[C@H](C)[C@H](NC)C(=O)O; NMeD = CN[C@@H](CC(=O)O)C(=O)O; NMeHpra = C#CCC[C@H](NC)C(=O)O; NMeL = CN[C@@H](CC(C)C)C(=O)O; NEtAla = CCN[C@@H](C)C(=O)O; NMeV = CN[C@H](C(=O)O)C(C)C; d(β3hA) = C[C@@H](N)CC(=O)O; NMeS = CN[C@@H](CO)C(=O)O; NMeA = CN[C@@H](C)C(=O)O; Piperidide = C1CCN(*)CC1; Pyrrolidide = C1CCN(*)C1; dNMeA = CN[C@H](C)C(=O)O; Ac5c = NC1(C(=O)O)CCCC1; Aze = O=C(O)[C@@H]1CCN1; Cyclobutyl = C1CC(*)C1; Isopentyl = CC(C)CC*; Sar = CNCC(=O)O
Columns and labels:
[1] = molecular target: T1, Kras and SOS1 (biotin-tagged human Kras loaded with GDP, His-tagged human SOS1) (Homo sapiens, UniProt P01116, G12D); assay: Protein-protein interaction inhibition between Kras and SOS1 (KrasGl2D-SOS PPI) using AlphaScreen; type: binding; details: AlphaScreen; biotin-tagged human Kras loaded with GDP, His-tagged human SOS1; read-out: KRAS G12D-SOS PPI IC50
T1 construct: made in house; host or cells: E. coli (stated for Kras only)
T1 sequence (P01116 1-188 isoform P01116-2 G12D): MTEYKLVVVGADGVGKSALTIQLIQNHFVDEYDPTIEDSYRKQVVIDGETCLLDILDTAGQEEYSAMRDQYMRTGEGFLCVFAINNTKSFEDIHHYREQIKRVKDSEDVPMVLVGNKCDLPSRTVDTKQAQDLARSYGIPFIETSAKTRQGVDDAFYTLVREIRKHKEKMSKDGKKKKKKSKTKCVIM
In short: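 AlphaScreen format: Ni donor beads capture His-SOS1, streptavidin acceptor beads capture biotinylated Kras (E. coli-expressed, GDP-loaded post-purification). Excite 680 nm, read 520-620 nm.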

[2] = test system: Human pancreatic cancer cell line AsPC-1; assay: Measurement of AsPC-1 cell growth inhibition (AsPC-1 CGI); type: cell-based; details: 96 h
In short: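 AsPC-1 cells in 15% FBS RPMI-1640 were exposed to test compound for 96 hours at 37° C, with CellTiter-Glo as endpoint.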

Row | SMILES | pIC50 [1] | pIC50 [2]
1 | CC[C@H](C)[C@@H]1NC(=O)[C@H](C)N(C)C(=O)C[C@@H](C(=O)N2CCCCC2)N(C)C(=O)[C@H](C2CCCC2)N(C)C(=O)C2(CCCC2)NC(=O)[C@@H]2CCCN2C(=O)[C@H](CCc2ccc(C(F)(F)F)c(Cl)c2)NC(=O)CN(C)C(=O)[C@H](CC2CCCCC2)N(C)C(=O)CN(C)C(=O)CN(C)C1=O [Compound 246] ([NMeA]I[Sar][Sar][NMeCha][Sar][hPhe(3-Cl-4-CF3)]P[Ac5c][NMeGly(cPent)][NMeD]-Piperidide; lactam N-11) | 9.52 | 7.00 to 7.30
2 | CC[C@H](C)[C@@H]1NC(=O)[C@H](CC(C)C)N(C)C(=O)C[C@@H](C(=O)N(C)C)N(C)C(=O)[C@H](C2CCCC2)N(C)C(=O)C2(CCCC2)NC(=O)[C@H](COCCC(C)C)N(C)C(=O)[C@H](CCc2ccc(C(F)(F)F)c(Cl)c2)NC(=O)CN(C)C(=O)[C@H](CC2CCCCC2)N(C)C(=O)[C@@H]2CCN2C(=O)[C@H](C)N(C)C1=O [Compound 250] ([NMeL]I[NMeA][Aze][NMeCha][Sar][hPhe(3-Cl-4-CF3)][NMeS](Isopentyl)[Ac5c][NMeGly(cPent)][NMeD]-NMe2; lactam N-11) | 8.01 | 6.30 to 7.00
3 | CC[C@H](C)[C@@H]1NC(=O)[C@H](C)N(CC)C(=O)C[C@@H](C)N(C)C(=O)[C@H](C(C)C)N(C)C(=O)C2(CCCC2)NC(=O)[C@@H]2CCCN2C(=O)[C@H](CCc2ccc(C(F)(F)F)c(Cl)c2)NC(=O)CN(C)C(=O)[C@H](CC2CCCCC2)N(C)C(=O)CN(C)C(=O)CN(C)C1=O [Compound 264] (cyclo([Ac5c][NMeV][NMedβ3hAla][NEtAla]I[Sar][Sar][NMeCha][Sar][hPhe(3-Cl-4-CF3)]P)) | 8.35 | 6.30 to 7.00
4 | CC[C@H](C)[C@@H]1NC(=O)[C@H](CC(C)C)N(C)C(=O)C[C@@H](C(=O)N(C)C)N(C)C(=O)[C@H](C2CCCC2)N(C)C(=O)C2(CCCC2)NC(=O)[C@H](C)N(C)C(=O)[C@H](CCc2ccc(C(F)(F)F)c(Cl)c2)NC(=O)CN(C)C(=O)[C@H](CC2CCCCC2)N(C)C(=O)[C@@H]2CCN2C(=O)[C@H](C)N(C)C1=O [Compound 274] ([NMeL]I[NMeA][Aze][NMeCha][Sar][hPhe(3-Cl-4-CF3)][NMeA][Ac5c][NMeGly(cPent)][NMeD]-NMe2; lactam N-11) | 9.09 | 7.00 to 7.30
5 | CC[C@H](C)[C@@H]1NC(=O)[C@H](CC2CCCCC2)N(C)C(=O)C[C@@H](C)NC(=O)[C@H](C(C)C)N(C)C(=O)C2(CCCC2)NC(=O)[C@@H]2CCCN2C(=O)[C@H](CCc2ccc(C(F)(F)F)c(Cl)c2)NC(=O)CN(C)C(=O)[C@H](CC2CCCCC2)N(C)C(=O)CN(C)C(=O)CN(C)C1=O [Compound 285] (cyclo([Ac5c][NMeV][d(β3hA)][NMeCha]I[Sar][Sar][NMeCha][Sar][hPhe(3-Cl-4-CF3)]P)) | 7.28 | 6.30 to 7.00
6 | C=CC[C@@]1(C)NC(=O)[C@@H]2CCCN2C(=O)[C@H](CCc2ccc(C(F)(F)F)c(Cl)c2)NC(=O)CN(C)C(=O)[C@H](CC2CCCCC2)N(C)C(=O)CN(C)C(=O)CN(C)C(=O)[C@H]([C@@H](C)CC)NC(=O)[C@H](CC(C)C)N(C)C(=O)C[C@@H](C(=O)N2CCCCC2)N(C)C(=O)[C@H](C(C)C)N(C)C1=O [Compound 287] ([NMeL]I[Sar][Sar][NMeCha][Sar][hPhe(3-Cl-4-CF3)]P[dαMeGly(allyl)][NMeV][NMeD]-Piperidide; lactam N-11) | 8.29 | 6.30 to 7.00
7 | CC[C@H](C)[C@@H]1NC(=O)[C@H](CC(C)C)N(C)C(=O)C[C@@H](C(=O)N(C)C)N(C)C(=O)[C@H]([C@@H](C)CC)N(C)C(=O)C2(CCCC2)NC(=O)[C@@H](C)N(C)C(=O)[C@H](CCc2ccc(C(F)(F)F)c(Cl)c2)NC(=O)CN(C)C(=O)[C@H](Cc2ccc(C)cc2)N(C)C(=O)[C@@H]2CCN2C(=O)[C@H](C)N(C)C1=O [Compound 288] ([NMeL]I[NMeA][Aze][NMePhe(4-Me)][Sar][hPhe(3-Cl-4-CF3)][dNMeA][Ac5c][NMeI][NMeD]-NMe2; lactam N-11) | 8.77 | 6.30 to 7.00
8 | CC[C@H](C)[C@@H]1NC(=O)[C@H](C)N(C)C(=O)C[C@@H](C(=O)N2CCCCC2)N(C)C(=O)[C@H](C2CCCCC2)N(C)C(=O)C2(CCCC2)NC(=O)[C@@H]2CCCN2C(=O)[C@H](CCc2ccc(Cl)cc2)NC(=O)CN(C)C(=O)[C@H](CC2CCCCC2)N(C)C(=O)CN(C)C(=O)CN(C)C1=O [Compound 292] ([NMeA]I[Sar][Sar][NMeCha][Sar][hPhe(4-Cl)]P[Ac5c][NMeChg][NMeD]-Piperidide; lactam N-11) | 9.35 | 7.00 to 7.30
9 | C#CCC[C@H]1C(=O)N[C@@H]([C@@H](C)CC)C(=O)N(C)CC(=O)N(C)CC(=O)N(C)[C@@H](Cc2ccc(I)cc2)C(=O)N(C)CC(=O)N[C@@H](CCc2ccc(C(F)(F)F)c(Cl)c2)C(=O)N2CCC[C@H]2C(=O)NC2(CCCC2)C(=O)N(C)[C@@H](C2CCCCC2)C(=O)N[C@H](C)CC(=O)N1C [Compound 300] (cyclo([Ac5c][NMeChg][d(β3hA)][NMeHpra]I[Sar][Sar][NMePhe(4-I)][Sar][hPhe(3-Cl-4-CF3)]P)) | 8.02 | 6.30 to 7.00
10 | CC[C@H](C)[C@@H]1NC(=O)[C@H](CC(C)C)N(C)C(=O)C[C@@H](C(=O)N2CCCCC2)N(C)C(=O)[C@H](C2CCCCC2)N(C)C(=O)C2(CCCC2)NC(=O)[C@@H]2CCCN2C(=O)[C@H](CCc2ccc(C(F)(F)F)c(Cl)c2)NC(=O)CN(C)C(=O)[C@H](COC2CCC2)N(C)C(=O)CN(C)C(=O)CN(C)C1=O [Compound 309] ([NMeL]I[Sar][Sar][NMeS](Cyclobutyl)[Sar][hPhe(3-Cl-4-CF3)]P[Ac5c][NMeChg][NMeD]-Piperidide; lactam N-11) | 9.12 | 6.30 to 7.00
11 | CC[C@H](C)[C@@H]1NC(=O)[C@H](CC(C)C)N(C)C(=O)C[C@@H](C(=O)N2CCCCC2)N(C)C(=O)[C@H]([C@@H](C)CC)N(C)C(=O)C2(CCCC2)NC(=O)[C@@H]2CCCN2C(=O)[C@H](CCc2ccc(C(F)(F)F)c(Cl)c2)NC(=O)CN(C)C(=O)[C@H](CC2CCCCC2)N(C)C(=O)CN(C)C(=O)CN(C)C1=O [Compound 311] ([NMeL]I[Sar][Sar][NMeCha][Sar][hPhe(3-Cl-4-CF3)]P[Ac5c][NMeI][NMeD]-Piperidide; lactam N-11) | 8.23 | 7.30 to 7.70
12 | CC[C@H](C)[C@@H]1NC(=O)[C@H](CC2CCCCC2)N(C)C(=O)C[C@@H](C(=O)N2CCCCC2)N(C)C(=O)[C@H](C(C)C)N(C)C(=O)C2(CCCC2)NC(=O)[C@@H]2CCCN2C(=O)[C@H](CCc2ccc(C(F)(F)F)c(Cl)c2)NC(=O)CN(C)C(=O)[C@H](CC2CCCCC2)N(C)C(=O)CN(C)C(=O)CN(C)C1=O [Compound 321] ([NMeCha]I[Sar][Sar][NMeCha][Sar][hPhe(3-Cl-4-CF3)]P[Ac5c][NMeV][NMeD]-Piperidide; lactam N-11) | 7.96 | 6.30 to 7.00
13 | CC[C@H](C)[C@@H]1NC(=O)[C@H](CC(F)(F)F)N(C)C(=O)C[C@@H](C(=O)N2CCCC2)N(C)C(=O)[C@H](C2CCCCC2)N(C)C(=O)C2(CCCC2)NC(=O)[C@@H]2CCCN2C(=O)[C@H](CCc2ccc(C(F)(F)F)c(Cl)c2)NC(=O)CN(C)C(=O)[C@H](CC2CCCC2)N(C)C(=O)CN(C)C(=O)CN(C)C1=O [Compound 326] ([NMeAbu(4,4,4-F3)]I[Sar][Sar][NMeAla(cPent)][Sar][hPhe(3-Cl-4-CF3)]P[Ac5c][NMeChg][NMeD]-Pyrrolidide; lactam N-11) | 9.15 | 7.00 to 7.30
14 | CC[C@H](C)[C@@H]1NC(=O)[C@H](CC(C)C)N(C)C(=O)C[C@@H](C(=O)N2CCCCC2)N(C)C(=O)[C@H](CC(C)C)N(C)C(=O)C2(CCCC2)NC(=O)[C@@H]2CCCN2C(=O)[C@H](CCc2ccc(C(F)(F)F)c(F)c2)NC(=O)CN(C)C(=O)[C@H](Cc2ccc(Cl)cc2)N(CC)C(=O)CN(C)C(=O)CN(C)C1=O [Compound 328] ([NMeL]I[Sar][Sar][NEtPhe(4-Cl)][Sar][hPhe(3-F,4-CF3)]P[Ac5c][NMeL][NMeD]-Piperidide; lactam N-11) | 7.03 | 6.30 to 7.00
15 | CC[C@H](C)[C@@H]1NC(=O)[C@H](CC(C)C)N(C)C(=O)C[C@@H](C)N(C)C(=O)[C@H](C(C)C)N(C)C(=O)C2(CCCC2)NC(=O)[C@@H]2CCCN2C(=O)[C@H](CCc2ccc(C(F)(F)F)c(F)c2)NC(=O)CN(C)C(=O)[C@H](CC2CCCCC2)N(C)C(=O)CN(C)C(=O)CN(C)C1=O [Compound 337] (cyclo([Ac5c][NMeV][NMedβ3hAla][NMeL]I[Sar][Sar][NMeCha][Sar][hPhe(3-F,4-CF3)]P)) | 7.80 | 6.30 to 7.00
16 | CC[C@H](C)[C@@H]1NC(=O)[C@H](C2CCC2)N(C)C(=O)C[C@@H](C(=O)N2CCCC2)N(C)C(=O)[C@H](C2CCCCC2)N(C)C(=O)C2(CCCC2)NC(=O)[C@@H]2CCCN2C(=O)[C@H](CCc2ccc(C(F)(F)F)c(Cl)c2)NC(=O)CN(C)C(=O)[C@H](Cc2ccc(C)cc2)N(C)C(=O)CN(C)C(=O)CN(C)C1=O [Compound 339] ([NMeGly(cBu)]I[Sar][Sar][NMePhe(4-Me)][Sar][hPhe(3-Cl-4-CF3)]P[Ac5c][NMeChg][NMeD]-Pyrrolidide; lactam N-11) | 9.42 | 7.30 to 7.70
17 | CC[C@H](C)[C@@H]1NC(=O)[C@H](CC(C)C)N(C)C(=O)C[C@@H](C(=O)N(C)C)N(C)C(=O)[C@H]([C@@H](C)CC)N(C)C(=O)C2(CCCC2)NC(=O)[C@H](Cc2ccc(C)cc2)N(C)C(=O)[C@H](CCc2ccc(C(F)(F)F)c(Cl)c2)NC(=O)CN(C)C(=O)[C@H](Cc2ccc(C)cc2)N(C)C(=O)[C@@H]2CCN2C(=O)[C@H](C)N(C)C1=O [Compound 340] ([NMeL]I[NMeA][Aze][NMePhe(4-Me)][Sar][hPhe(3-Cl-4-CF3)][NMePhe(4-Me)][Ac5c][NMeI][NMeD]-NMe2; lactam N-11) | 8.33 | 7.30 to 7.70
